According to patent US7893299B2, “Interleukin-1 and tumor necrosis factor-αmodulators; syntheses of such modulators and methods of using such modulators” (Nereus Pharmaceuticals, Inc., priority 2005, dated 2011):
Entries after “also recorded” stand apart in the source; their conditions may differ. Where two headings read alike, the source gives them in different places.

How the values were obtained:
[1] = system: TNF-α production in HPBMC; assay: TNF-α levels in LPS-stimulated Human Peripheral Blood Mononuclear cells (ELISA); type: cell-based; settings: 5 hr drug exposure, read-out: EC50 Inhibition of TNF-α production
Procedure: (§1) Eighty μl of 3.1×10^5/ml Human Peripheral Blood Mononuclear cells (HPBMC) were seeded in Costar 3904 96-well plate in LGM-3 medium and cultured for 12 hr at 37° C., 5% CO2 and 95% humidified air. 10 μl of 8-point half-log serial dilutions of LT-1-85, CC-3-19, CC-3-13P, formula (IIB-A1) and CC-3-22 prepared in LGM-3 medium was added to the cells and incubated for 1 hr. Subsequently, 10 μl of 500 ng/ml lipopolysaccharide (LPS) diluted in LGM-3 medium from 1 mg/ml stock solution was added to the cells and incubation proceeded for another 4 hr at 37° C., 5% CO2 and 95% humidified air. SB203580, a known p38 MAP kinase inhibitor and DMSO were used as positive and negative controls, respectively. After 4 hr stimulation with LPS, the level of TNF-α from each sample was analyzed by using the human TNF-α cytoset ELISA kit. EC50 values (the drug concentration at which 50% of the maximal observed TNF-α production is inhibited) were determined using a standard sigmoidal dose response curve fitting algorithm (Prism 2.0, GraphPad Software Inc). A duplicate set of cell plates were assayed for cell viability using the Resazurin dye after the cells were incubated with test compounds for 24 hr. The fluorescence of the reduction product of Resazurin was measured using a Fusion microplate fluorometer (Packard Bioscience) with λex=535 nm and λem=590 nm filters. EC50 values (the drug concentration at which 50% of the maximal observed growth inhibition is established) were determined using a standard sigmoidal dose response curve fitting algorithm (Prism 2.0, GraphPad Software Inc).

HPBMC = HPBMC cell viability, Resazurin; type: cell-based, Human; settings: for EC50: HPBMC, 24 hr drug exposure, read-out: EC50 Inhibition of cell growth
Procedure: as §1

HEK-293 cells = assay: cell growth inhibition, HEK-293, Resazurin, 1% FBS; type: cell-based, Human; settings: 48 hr of drug exposure
Procedure: (§2) Human prostate adenocarcinoma (PC-3; CRL-1435), multiple myeloma (RPMI 8226; CCL-155) and embryonic kidney (HEK-293; CRL-1573) cells were all purchased from ATCC and maintained in appropriate culture media. The cells were cultured in an incubator at 37° C. in 5% CO2 and 95% humidified air.
(§3) For cell growth inhibition assays, PC-3 and HEK-293 cells were seeded at 5×10^3 and 1.5×10^3 cells/well respectively in 90 μl media containing 1% (v/v) FBS into 96 well (Corning; 3904) black-walled, clear-bottom tissue culture plates and the plates were incubated overnight to allow cells to establish and enter log phase growth. RPMI 8226 cells were seeded at 2×10^4 cells/well respectively in 90 μl media containing 1% (v/v) FBS into 96 well plates on the day of the assay. 4 mg/ml stock solutions of the compounds were prepared in 100% DMSO and stored at −20° C. The compounds were serially diluted and added in triplicate to the test wells. LT-1-85 was tested at concentrations ranging from 27 μM to 8.6 nM. Concentrations ranging from 30 μM to 9.7 nM were tested for CC-3-13P. Formula (IIB-A1) was tested at concentrations ranging from 26 μM to 8.4 nM. The plates were returned to the incubator for 48 hours. The final concentration of DMSO was 0.25% in all samples.
Following 48 hours of drug exposure, 10 μl of 0.2 mg/ml Resazurin in Mg2+, Ca2+ free phosphate buffered saline was added to each well and the plates were returned to the incubator for 3-6 hours. Since living cells metabolize Resazurin, the fluorescence of the reduction product of Resazurin was measured using a Fusion microplate fluorometer (Packard Bioscience) with λex=535 nm and λem=590 nm filters. Resazurin dye in medium without cells was used to determine the background, which was subtracted from the data for all experimental wells. […] Where the maximum inhibition of cell growth was less than 50%, an EC50 value was not determined. The data in Table 25 summarize the growth inhibitory effects of LT-1-85, CC-3-13P and formula (IIB-A1) against HEK-293, PC-3 and RPMI 8226 cells. […]

PC-3 cells = assay: cell growth inhibition, PC-3, Resazurin, 1% FBS; type: cell-based, Human; settings: 48 hr of drug exposure
Procedure: as §2, §3
(§4) Following 48 hours of drug exposure, 10 μl of 0.2 mg/ml Resazurin in Mg2+, Ca2+ free phosphate buffered saline was added to each well and the plates were returned to the incubator for 3-6 hours. Since living cells metabolize Resazurin, the fluorescence of the reduction product of Resazurin was measured using a Fusion microplate fluorometer (Packard Bioscience) with λex=535 nm and λem=590 nm filters. Resazurin dye in medium without cells was used to determine the background, which was subtracted from the data for all experimental wells. […] Where the maximum inhibition of cell growth was less than 50%, an EC50 value was not determined. The data in Table 25 summarize the growth inhibitory effects of LT-1-85, CC-3-13P and formula (IIB-A1) against HEK-293, PC-3 and RPMI 8226 cells. The EC50 values indicate that LT-1-85 and CC-3-13P are cytotoxic against HEK-293, PC-3 and RPMI 8226 cells. Formula (IIB-A1) is cytotoxic against RPMI 8226 cells.

RPMI 8226 cells = assay: cell growth inhibition, RPMI 8226, Resazurin, 1% FBS; type: cell-based, Human; settings: 48 hr of drug exposure
Procedure: as §2, §3, §4

NIK = NIK (Homo sapiens, UniProt Q99558); type: biochemical; settings: for inhibition of the NIK kinase activity: transfected cells stimulated with LPS/IFNγ in the presence of compound
Chain of NIK (Q99558 whole entry): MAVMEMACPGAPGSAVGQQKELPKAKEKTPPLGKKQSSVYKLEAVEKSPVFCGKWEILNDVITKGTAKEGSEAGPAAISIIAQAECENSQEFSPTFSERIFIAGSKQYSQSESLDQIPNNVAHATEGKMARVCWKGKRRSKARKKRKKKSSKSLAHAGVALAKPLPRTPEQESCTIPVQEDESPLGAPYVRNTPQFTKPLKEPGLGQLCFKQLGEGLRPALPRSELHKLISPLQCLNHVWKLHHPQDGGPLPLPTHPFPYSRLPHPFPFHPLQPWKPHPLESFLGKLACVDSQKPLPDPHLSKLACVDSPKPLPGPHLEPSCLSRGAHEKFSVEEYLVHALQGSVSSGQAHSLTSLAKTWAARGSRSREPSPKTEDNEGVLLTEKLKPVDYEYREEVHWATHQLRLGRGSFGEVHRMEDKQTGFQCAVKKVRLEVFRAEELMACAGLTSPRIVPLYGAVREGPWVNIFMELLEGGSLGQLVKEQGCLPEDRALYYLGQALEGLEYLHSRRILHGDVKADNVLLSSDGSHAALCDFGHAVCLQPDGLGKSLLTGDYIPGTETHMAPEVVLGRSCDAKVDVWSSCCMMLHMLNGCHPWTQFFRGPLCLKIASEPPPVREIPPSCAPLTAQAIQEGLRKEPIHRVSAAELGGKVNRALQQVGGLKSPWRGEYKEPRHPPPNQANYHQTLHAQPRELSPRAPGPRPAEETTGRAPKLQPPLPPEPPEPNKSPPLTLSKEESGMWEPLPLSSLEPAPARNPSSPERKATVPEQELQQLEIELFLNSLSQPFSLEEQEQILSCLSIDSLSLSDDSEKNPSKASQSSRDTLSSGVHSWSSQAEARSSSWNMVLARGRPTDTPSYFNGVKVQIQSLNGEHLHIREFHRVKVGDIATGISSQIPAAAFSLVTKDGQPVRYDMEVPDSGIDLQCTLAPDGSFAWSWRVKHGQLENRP
Procedure: The tubes were gently vortexed for 15 s and centrifuged at 8000×g for 15 min. The supernatant (1 ml) was pre-cleared, and NIK was immunoprecipitated with 1 μg of anti-myc Ab. After extensive washing of the immunoprecipitate with buffer A, the pellet was resuspended in kinase buffer (modified buffer A containing 0.1 mM EDTA, 5 mM MgCl2 and 10 nM okadaic acid). Kinase activity was assayed in 100 μl of kinase buffer containing 100 ng of immunoprecipitate, 50 μM [γ-^32P]ATP (0.5 μCi) and 100 ng of MBP as substrate.

TPA-induced ear edema = assay: TPA-induced mouse ear edema model; type: in vivo; settings: 500 ng per ear topically with TPA, 4 h
Procedure: 2.5 μg of TPA dissolved in 20 μl of DMSO, was applied to both surfaces of the right ear of each mouse. The left ear (control) received the vehicle (DMSO). Tested compounds were administered topically (500 ng per ear in 20 μl of DMSO) simultaneously with TPA application. The reference drug, indomethacin, was administered at the same doses. After 4 h, the animals were killed by cervical dislocation and a 6 mm diameter disc from each ear was removed with a metal punch and weighed. Ear edema was calculated by subtracting the weight of the left ear (vehicle) from the right ear (treatment). Ear sections were homogenized in 750 μl of saline. After centrifugation at 10000×g for 15 min at 4° C., myeloperoxidase (MPO) activity was measured in supernatants.

[2] = system: D-GalN/LPS endotoxic shock; assay: lethality induced by D-GalN/LPS in mice; type: in vivo, BALB/c mice; settings: 5 μmol/kg i.p. 1 hour prior to D-GalN/LPS
Procedure: Male BALB/c mice, 8 to 10 weeks old were induced an endotoxic shock. The lethal injury was produced by an intraperitoneal (i.p.) injection of LPS (2 μg/kg) in combination with D-GalN (800 mg/kg). 5 μmol/kg of TTL3 or formula (IIB-A1) were administered by i.p. injection (0.5 ml) 1 hour prior to the challenge of D-GalN/LPS. Saline was given to the control animals. The lethality was monitored until 24 h after the administration of D-GalN/LPS.

SMILES	EC50 ([1]; Homo sapiens, PBMC, 5 h)	EC50 (HPBMC; Homo sapiens, 24 h)	cell growth of HPBMC (in words) (HPBMC; concentrations up to 26 μM)	EC50 (HEK-293 cells; Homo sapiens, HEK293, 48 h)	EC50 (PC-3 cells; Homo sapiens, PC-3, 48 h)	EC50 (RPMI 8226 cells; Homo sapiens, RPMI-8226, 48 h)	inhibition of the NIK kinase activity (NIK)	ear edema (TPA-induced ear edema)	myeloperoxidase activity (TPA-induced ear edema)	ear edema (TPA-induced ear edema; listed as formula (IIB-A1))	protection against lethality / survival time [2]	protection against lethality / survival time ([2]; listed as formula (IIB-A1))	EC50 [1]	EC50 (HPBMC)	EC50 (HEK-293 cells)	EC50 (PC-3 cells)	EC50 (RPMI 8226 cells)	inhibition of the kinase activity of NIK (NIK; 1 μM directly added to the in vitro NIK kinase assay)
C=C[C@@]1(C)CCC=C2[C@H]1CC[C@@H]1[C@](C)(C(=O)NC3CCCCC3)CCC[C@@]21C [Formula (IIB-A1), N-Cyclohexylamide Derivative of TTL]	1.4 µM	> 26 µM	did not inhibit	> 26 µM	> 26 µM	21 µM	70%	inhibit TPA-induced ear edema	significantly attenuated	significantly reduced	delay D-GalN/LPS lethality	extending three folds the survival time						
C=C[C@@]1(C)CCC=C2[C@H]1CC[C@@H]1[C@](C)(C(=O)N3CCOCC3)CCC[C@@]21C [LT-1-85]	1.9 µM	3.8 µM		23 µM	22 µM	14 µM							2.3 µM	3.6 µM	22 µM	19 µM	13 µM	
C=C[C@@]1(C)CCC=C2[C@H]1CC[C@@H]1[C@](C)(C(=O)OC)CCC[C@@]21C [TTL3]							70%	significantly reduced; also recorded: inhibit TPA-induced ear edema	significantly attenuated		extending three folds the survival time; also recorded: delay D-GalN/LPS lethality							48%
